Among the data in PubChem BioAssay (NCI) are TGI and GI50 values, retold here.

As a reminder, the TGI is the concentration giving total growth inhibition. Lower therefore signals greater sensitivity of the cells. In general, GI50 refers to the concentration at which growth is held to half of that of the control.

Structures are written as SMILES. “And” between values parts separate entries of the source, which are not always exact repeats. Equal values may be shown once.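 A five-concentration, 48-hour dose response in 96-well plates underlies each endpoint, interpolated linearly between surrounding concentrations. Abbreviation: GI50, concentration required for 50% inhibition of growth. At the TGI there is no net growth.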 Some results are limits rather than exact numbers.

Test systems include SNB-19 CNS; MOLT-4 leukemia; HCT-15 colon; HCC-2998 colon; UACC-62 melanoma; NCI-H460 lung; HL-60(TB) leukemia; COLO 205 colon; SF-539 CNS; DU-145 prostate; MDA-MB-231 breast; IGROV1 ovarian; SNB-75 CNS.
Common to all, as to experiment: DTP human tumour cell line panel, 48 h

For `O=[N+]([O-])c1ccc(OP(=O)(O)OCC2OC(CP(=O)(O)O)C(O)C2O)cc1` (stereo not drawn), the concentration for total growth inhibition (TGI) in the assay on SNB-19 CNS, with MOLT-4 leukemia, in the assay with HCT-15 colon, in the assay with HCC-2998 colon, in the assay on UACC-62 melanoma and in the assay on NCI-H460 lung was above 100 µM each time. In addition, the TGI with HL-60(TB) leukemia, in the assay on COLO 205 colon, in the assay with SF-539 CNS, with DU-145 prostate, with MDA-MB-231 breast and in the assay with IGROV1 ovarian was above 100 µM each time.

Regarding `COc1cc(CC(C)N[C@@H](C)c2ccccc2)cc(OC)c1` (stereo partly drawn), the total growth inhibition concentration (TGI) in the assay on SNB-19 CNS is 21.3 µM and > 100 µM; with MOLT-4 leukemia, 17.4 µM and > 100 µM; in the assay with HCT-15 colon it was 16.1 µM and > 100 µM; in the assay on UACC-62 melanoma, 19.8 µM and > 100 µM; in the assay on SNB-75 CNS, 12.9 µM and > 100 µM; with NCI-H460 lung, 12.1 µM and > 100 µM. Also, the TGI was 10.7 µM and > 100 µM with HL-60(TB) leukemia; above 100 µM in the assay with SF-539 CNS; 25.2 µM and > 100 µM in the assay on DU-145 prostate; 27.2 µM and > 100 µM in the assay on MDA-MB-231 breast; 24.3 µM and > 100 µM in the assay on IGROV1 ovarian. For the same molecule, the GI50 with SNB-75 CNS was 2.9 µM and 24.7 µM; with DU-145 prostate, 12.6 µM and > 100 µM; in the assay on MDA-MB-231 breast, 12.8 µM and > 100 µM; in the assay with IGROV1 ovarian it was 10.6 µM and > 100 µM.

For `Nc1nc(NNc2ccccc2F)cc(=O)[nH]1`, the total growth inhibition concentration (TGI) in the assay with SNB-19 CNS, in the assay with MOLT-4 leukemia, in the assay with HCT-15 colon, in the assay on HCC-2998 colon, in the assay with NCI-H460 lung and with HL-60(TB) leukemia was above 100 µM in each case. The total growth inhibition concentration (TGI) with COLO 205 colon, with SF-539 CNS, in the assay with DU-145 prostate, in the assay on MDA-MB-231 breast and in the assay with IGROV1 ovarian was above 100 µM each time.

In the case of `CC1=C(S(=O)c2ccc(C)cc2)CCC2(CCCCO2)O1` (stereo not drawn), the TGI in the assay with SNB-19 CNS, with MOLT-4 leukemia, in the assay on HCT-15 colon, in the assay with HCC-2998 colon, in the assay with UACC-62 melanoma and in the assay with SNB-75 CNS was above 100 µM in each case. In addition, the concentration for total growth inhibition (TGI) in the assay on NCI-H460 lung, in the assay on HL-60(TB) leukemia, with COLO 205 colon, with DU-145 prostate, with MDA-MB-231 breast and with IGROV1 ovarian was above 100 µM in each case.

For `Cc1ccc(O)c(-c2cc(-c3ccccc3)nc(/N=C\c3ccccc3)n2)c1`, the TGI is above 100 µM in the assay on SNB-19 CNS; above 100 µM in the assay on MOLT-4 leukemia; above 100 µM in the assay with HCT-15 colon; 48.6 µM in the assay with UACC-62 melanoma; 40.9 µM in the assay with SNB-75 CNS; above 100 µM in the assay on NCI-H460 lung. Further, the TGI with HL-60(TB) leukemia is above 100 µM; in the assay with SF-539 CNS, above 100 µM; in the assay on DU-145 prostate, above 100 µM; with MDA-MB-231 breast, above 100 µM; in the assay with IGROV1 ovarian, 44 µM.

For the molecule `Cn1c2c(c3ccccc31)CC(=O)N1CCCC(C1)CC21OCCO1` (stereo not drawn), the TGI in the assay with SNB-19 CNS, in the assay on MOLT-4 leukemia, with HCT-15 colon, in the assay on HCC-2998 colon, with UACC-62 melanoma and with SNB-75 CNS was above 100 µM each time. Further, the TGI in the assay on NCI-H460 lung, in the assay with HL-60(TB) leukemia, in the assay with COLO 205 colon, with DU-145 prostate, in the assay with MDA-MB-231 breast and in the assay with IGROV1 ovarian was above 100 µM each time.

On to `CCCC(=O)n1[nH]c(=O)n(C(C)(C)C)c1=O`, for which the TGI in the assay with SNB-19 CNS, in the assay with MOLT-4 leukemia, in the assay with HCT-15 colon, with HCC-2998 colon, in the assay on UACC-62 melanoma and with SNB-75 CNS was above 100 µM in each case. Further, the TGI in the assay with NCI-H460 lung, in the assay on HL-60(TB) leukemia, in the assay with COLO 205 colon, in the assay with DU-145 prostate, with MDA-MB-231 breast and in the assay on IGROV1 ovarian was above 100 µM each time.

`CC(=O)O[C@@H]1[C@@H](C)[C@]2(CC(c3ccoc3)OC2O)C2CCC3O[C@]3(C)[C@]2(C)[C@@H]1OC(C)=O` (stereo partly drawn): the TGI is above 100 µM in the assay with SNB-19 CNS; 64.9 µM in the assay on MOLT-4 leukemia; above 100 µM in the assay with HCT-15 colon; above 100 µM with UACC-62 melanoma; above 100 µM in the assay with SNB-75 CNS; above 100 µM in the assay on NCI-H460 lung. Moreover, the total growth inhibition concentration (TGI) was 48.7 µM in the assay on HL-60(TB) leukemia; 40 µM with COLO 205 colon; 65.3 µM in the assay on SF-539 CNS; above 100 µM in the assay with DU-145 prostate; above 100 µM with MDA-MB-231 breast; above 100 µM in the assay on IGROV1 ovarian.

Regarding `N#Cc1nc(-c2ccccc2O)oc1N`, the concentration for total growth inhibition (TGI) in the assay on SNB-19 CNS, in the assay on MOLT-4 leukemia, in the assay on HCT-15 colon, with UACC-62 melanoma, in the assay with HL-60(TB) leukemia and in the assay with DU-145 prostate was above 100 µM in each case. For the same molecule, the TGI with MDA-MB-231 breast and in the assay on IGROV1 ovarian was above 100 µM each time.

`CCOC(=O)C(Cc1ccc2c(c1)CCC2)Cc1ccc2c(c1)CCC2`: the TGI in the assay with SNB-19 CNS was above 100 µM; in the assay on MOLT-4 leukemia it was 41.1 µM; with HCT-15 colon, above 100 µM; in the assay with HCC-2998 colon, above 100 µM; with SNB-75 CNS it was above 100 µM; in the assay with NCI-H460 lung it was above 100 µM. The total growth inhibition concentration (TGI) was 58.2 µM with HL-60(TB) leukemia; above 100 µM in the assay with SF-539 CNS; above 100 µM with DU-145 prostate; above 100 µM with MDA-MB-231 breast; above 100 µM in the assay on IGROV1 ovarian.

For `N#Cc1c(N)nc2c(N=Nc3ccccc3)c(N)nn2c1Nc1ccccc1`, the TGI in the assay on SNB-19 CNS was 39.9 µM; in the assay on MOLT-4 leukemia, 7.97 µM; in the assay with HCT-15 colon, above 100 µM; in the assay on SNB-75 CNS, 70.3 µM; with NCI-H460 lung, 44.3 µM; with HL-60(TB) leukemia it was 6.56 µM. For the same molecule, the TGI worked out at 30.2 µM in the assay with COLO 205 colon; 47.2 µM in the assay on SF-539 CNS; 39.8 µM in the assay with DU-145 prostate; 47.6 µM with MDA-MB-231 breast; 29.3 µM with IGROV1 ovarian.

As for `CC1C2CC(CC2O)C1(C)C` (stereo not drawn), the concentration for total growth inhibition (TGI) with SNB-19 CNS, in the assay on MOLT-4 leukemia, with UACC-62 melanoma, in the assay with SNB-75 CNS, with NCI-H460 lung and in the assay with HL-60(TB) leukemia was above 100 µM in each case. In addition, the total growth inhibition concentration (TGI) in the assay with COLO 205 colon, with SF-539 CNS, in the assay with DU-145 prostate, in the assay on MDA-MB-231 breast and in the assay with IGROV1 ovarian was above 100 µM in each case.
